What was measured:
[1] = system: murine Factor 7 mRNA; experiment: Liver Factor 7 mRNA by real-time RT-PCR in treated BALB/c mice; format: in vivo, mouse
Description: A control group of mice was injected subcutaneously with PBS twice a week for 3 weeks. After the treatment period, whole liver was collected for RNA and protein analysis, and plasma was collected for clotting analysis (PT/aPTT).
(§1) RNA was extracted from liver tissue for real-time RT-PCR analysis of Factor 7.
A control group of 3 mice was injected with a single dose of PBS, and mice in this group were sacrificed on day 1. Mice in all groups were sacrificed by cervical dislocation following anesthesia with 150 mg/kg ketamine mixed with 10 mg/kg xylazine administered by intraperitoneal injection. Liver was harvested for RNA analysis and plasma was collected for clotting analysis (PT and aPTT).
as §1
Mice from the first group were sacrificed on days 1 and 3 after the single dose. […] A control group of 3 mice was injected with PBS in a single dose. Mice from the control group were sacrificed 1 day later. Mice in all groups were sacrificed by cervical dislocation following anesthesia with 150 mg/kg ketamine mixed with 10 mg/kg xylazine administered by intraperitoneal injection. Liver was harvested for RNA analysis and plasma was collected for clotting analysis (PT and aPTT) for mice in all groups.
RNA was extracted from liver tissue for quantitative RT-PCR analysis of Factor 7.
(§2) Two control groups of BALB/c mice were treated with PBS, administered subcutaneously twice a week for 3 weeks. Thrombus formation was induced with FeCl3 in half of the mice while the rest of the mice were assayed for tail bleeding. […] Thrombus formation was induced with FeCl3 in all groups of the VT mice except the first control group.
as §1
A fifth group of BALB/c mice was treated with 3 mg/kg of warfarin, administered intraperioneally daily for 6 days. Four hours after the last dose of warfarin, mice were sacrificed. A control group of BALB/c mice were treated with PBS, administered subcutaneously twice a week for 3 weeks. Two days after the last dose of PBS, mice were anesthetized with 150 mg/kg ketamine mixed with 10 mg/kg xylazine administered by intraperitoneal injection. Thrombus formation was induced with FeCl3 in groups of mice except the first control group.

[2] = system: BALB/c mice; experiment: Tail bleeding assay; conditions: for Blood: BALB/c mice, blood collected over 40 minutes, PBS 0.06
[3] = system: platelet factor-4 (PF-4); experiment: FeCl3 induced venous thrombosis (VT) model, real-time RT-PCR quantification of PF-4 in vena cava as measure of thrombus formation; format: in vivo, mouse; conditions: for PF-4 (percentage compared to PBS controls): vena cava, BALB/c mice
Description: as §2
(§3) In mice undergoing FeCl3 treatment, thrombus formation was induced by applying a piece of filter paper (2×4 min) pre-saturated with 10% FeCl3 solution directly on the vena cava. After 3 minutes of exposure, the filter paper was removed. Thirty minutes after the filter paper application, a fixed length of the vein containing the thrombus was dissected out for platelet analysis. Liver was collected for RNA analysis.
(§4) Real-time RT-PCR quantification of platelet factor-4 (PF-4) was used to quantify platelets in the vena cava as a measure of thrombus formation.
Six additional groups of BALB/c mice was treated with 0.5 mg/kg, 1 mg/kg, 2 mg·kg, 3 mg/kg, 4 mg/kg, or 5 mg/kg of warfarin, administered intraperioneally daily for 6 days. Four hours after the last dose of warfarin, mice were sacrificed. A control group of BALB/c mice were treated with PBS, administered subcutaneously twice a week for 3 weeks. Two days after the last dose of PBS, mice were anesthetized with 150 mg/kg ketamine mixed with 10 mg/kg xylazine administered by intraperitoneal injection. Thrombus formation was induced with FeCl3 in groups of mice except the first control group.
as §3, with “mm)” for “min)”
as §4
Thrombus formation was induced with FeCl3 in all of the mice except the first […] control groups. All mice were anesthetized with 150 mg/kg of ketamine mixed with 10 mg/kg of xylazine administered by intraperitoneal injection.
After 3 minutes of exposure, the filter paper was removed. Thirty minutes after the filter paper application, a fixed length of the vein containing the thrombus was dissected out for platelet analysis.
Real-time PCR quantification of PF-4 was used to quantify platelets in the vena cava as a measure of thrombus formation. […] Data is presented as percent of PF-4 mRNA as compared to the PBS+ FeCl3 control, […]

CC(=O)CC(c1ccccc1)c1c(O)c2ccccc2oc1=O (stereo not shown) [warfarin, reference compound] was tested, and the “reduction of Factor 7 mRNA as compared to the PBS control” value ([1]; Example 15, 3 mg/kg intraperitoneally daily for 6 days) was “did not result in significant reduction”, the “% inhibition of Factor 7 mRNA” value ([1]; liver, BALB/c mice, FeCl3 VT model, 3 mg/kg i.p. daily for 6 days, relative to PBS control) was 10% and the “Blood” value ([2]; 0.5 mg/kg i.p. daily for 6 days) was 0.16 g. For the same compound, the “Blood” value ([2]; 1 mg/kg i.p. daily for 6 days) was 0.28 g, the “Blood” value ([2]; 2 mg/kg i.p. daily for 6 days) was 0.58 g and the “Blood” value ([2]; 3 mg/kg i.p. daily for 6 days) was 0.78 g. The “Blood” value ([2]; 4 mg/kg i.p. daily for 6 days) was 0.66 g, the “Blood” value ([2]; 5 mg/kg i.p. daily for 6 days) was 0.93 g and the “bleeding as compared to PBS control mice” value ([2]; Example 17, 0.5-5 mg/kg intraperitoneally daily for 6 days) was “did increase bleeding”. For the same compound, the “PF-4 in comparison to the PBS control” value ([3]; Example 16, dose of 1 mg/kg and higher, intraperitoneally daily for 6 days) was “reduction of PF-4”, the “PF-4 (percentage compared to PBS controls)” value ([3]; FeCl3, 0.5 mg/kg i.p. daily for 6 days) was 165% and the “PF-4 (percentage compared to PBS controls)” value ([3]; FeCl3, 1 mg/kg i.p. daily for 6 days) was 63%. For the same compound, the “PF-4 (percentage compared to PBS controls)” value ([3]; FeCl3, 2 mg/kg i.p. daily for 6 days) was 47%, the “PF-4 (percentage compared to PBS controls)” value ([3]; FeCl3, 3 mg/kg i.p. daily for 6 days) was 35% and the “PF-4 (percentage compared to PBS controls)” value ([3]; FeCl3, 4 mg/kg i.p. daily for 6 days) was 22%. The “PF-4 (percentage compared to PBS controls)” value ([3]; FeCl3, 5 mg/kg i.p. daily for 6 days) was 0%.

Source: patent publication US20120214862A1, “MODULATION OF FACTOR 7 EXPRESSION” (ISIS Pharmaceuticals, Inc., priority 2009, published 2012)
